For twelve compounds, TGI results are on record in PubChem BioAssay (NCI).

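48-hour exposure; five concentrations; linearly interpolated endpoints. The concentration for full growth arrest is given as TGI.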

Test systems include EKVX NSCLC; SNB-19 CNS; UACC-257 melanoma; COLO 205 colon; NCI-H23 lung; HT29 colon; SK-MEL-5 melanoma; RPMI-8226 leukemia; RXF 393 renal; MDA-MB-435; SW-620 colon; SF-295 CNS; MCF7 breast; HCT-15 colon; 786-0 renal; SK-MEL-2 melanoma; OVCAR-8 ovarian; MOLT-4 leukemia; SF-268 CNS; NCI-H522 lung.
Assay in all cases: growth of human tumour cells (NCI), 48 h

With `c1cncc(C2(c3cc4ccccc4[nH]3)COCO2)c1` (configuration not stated), the TGI in the experiment on EKVX NSCLC, in the experiment on SNB-19 CNS, with UACC-257 melanoma, with COLO 205 colon, in the experiment with NCI-H23 lung and with HT29 colon was more than 100 µM in each case. Also, the TGI in the experiment with SK-MEL-5 melanoma, in the experiment on RPMI-8226 leukemia, with RXF 393 renal, in the experiment on MDA-MB-435, with SW-620 colon and in the experiment on SF-295 CNS was more than 100 µM each time. Also, the TGI with MCF7 breast, in the experiment with HCT-15 colon, with 786-0 renal, with SK-MEL-2 melanoma, in the experiment on OVCAR-8 ovarian and in the experiment with MOLT-4 leukemia was more than 100 µM throughout. The TGI in the experiment on SF-268 CNS is more than 100 µM.
`N#C[C@@H](c1nc2ccccc2s1)c1ncccc1[N+](=O)[O-]`: the TGI was more than 31.6 µM in the experiment on EKVX NSCLC; 17.4 µM in the experiment with SNB-19 CNS; 12 µM in the experiment on NCI-H522 lung; more than 100 µM in the experiment with UACC-257 melanoma; 8.8 µM in the experiment on COLO 205 colon; 16.1 µM in the experiment on NCI-H23 lung. Further, the TGI in the experiment on SK-MEL-5 melanoma was 37.3 µM; in the experiment on RXF 393 renal, more than 31.6 µM; with MDA-MB-435, more than 100 µM; in the experiment with SF-295 CNS, 40.7 µM; in the experiment with MCF7 breast it was 17.3 µM; with HCT-15 colon, more than 31.6 µM. The TGI in the experiment on 786-0 renal is 17.2 µM; in the experiment with SK-MEL-2 melanoma it was more than 31.6 µM; with OVCAR-8 ovarian it was 20.6 µM; with MOLT-4 leukemia it was more than 31.6 µM; with SF-268 CNS, more than 31.6 µM.
On to `CC(=O)N1C(OC(C)C)CC(C)N1c1ccccc1` (configuration not stated), for which the TGI in the experiment on EKVX NSCLC, with SNB-19 CNS, in the experiment on UACC-257 melanoma, with COLO 205 colon, in the experiment on NCI-H23 lung and in the experiment on HT29 colon was more than 10 µM each time. The TGI in the experiment with SK-MEL-5 melanoma, with RPMI-8226 leukemia, in the experiment with RXF 393 renal, with MDA-MB-435, in the experiment with SW-620 colon and in the experiment on SF-295 CNS was more than 10 µM each time. For the same compound, the TGI in the experiment on MCF7 breast, in the experiment on HCT-15 colon, in the experiment with 786-0 renal, in the experiment on SK-MEL-2 melanoma, with OVCAR-8 ovarian and in the experiment on MOLT-4 leukemia was more than 10 µM throughout. The TGI in the experiment with SF-268 CNS was more than 10 µM.
`CN1CC[C@]23c4c5ccc(O)c4O[C@H]2C(O)CC[C@@]3(O)[C@H]1C5` (some centres not stated): the TGI with EKVX NSCLC, with SNB-19 CNS, with NCI-H522 lung, with UACC-257 melanoma, with COLO 205 colon and in the experiment with NCI-H23 lung was more than 100 µM throughout. The TGI with HT29 colon, in the experiment on SK-MEL-5 melanoma, in the experiment on RPMI-8226 leukemia, with MDA-MB-435, in the experiment with SW-620 colon and in the experiment with SF-295 CNS was more than 100 µM throughout. Further, the TGI with MCF7 breast, in the experiment on HCT-15 colon, in the experiment on 786-0 renal, in the experiment with SK-MEL-2 melanoma, in the experiment on OVCAR-8 ovarian and in the experiment on MOLT-4 leukemia was more than 100 µM throughout. Further, the TGI in the experiment on SF-268 CNS was more than 100 µM.
With `CC1(C)CC(C2=NCCO2)CC(C)(C)N1`, the TGI in the experiment with EKVX NSCLC, in the experiment with SNB-19 CNS, with UACC-257 melanoma, with COLO 205 colon, in the experiment with NCI-H23 lung and in the experiment with HT29 colon was more than 100 µM each time. In addition, the TGI was more than 100 µM in the experiment with SK-MEL-5 melanoma; more than 100 µM with RPMI-8226 leukemia; more than 100 µM in the experiment on RXF 393 renal; more than 100 µM in the experiment with MDA-MB-435; more than 100 µM in the experiment on SF-295 CNS; 61.1 µM in the experiment with MCF7 breast. The TGI in the experiment on HCT-15 colon, in the experiment with 786-0 renal, with SK-MEL-2 melanoma, in the experiment on OVCAR-8 ovarian, in the experiment on MOLT-4 leukemia and in the experiment with SF-268 CNS was more than 100 µM each time.
As for `COc1cc(C2=C(c3cc(OC)c4ccccc4c3OC)C(=O)c3ccccc3C2=O)c(OC)c2ccccc12`, the TGI with EKVX NSCLC, in the experiment with SNB-19 CNS, in the experiment on NCI-H522 lung, in the experiment with UACC-257 melanoma, in the experiment on COLO 205 colon and in the experiment with NCI-H23 lung was more than 100 µM each time. The TGI in the experiment on HT29 colon, with SK-MEL-5 melanoma, in the experiment on RXF 393 renal, in the experiment with MDA-MB-435, in the experiment on SW-620 colon and in the experiment with SF-295 CNS was more than 100 µM each time. Besides, the TGI with MCF7 breast, with HCT-15 colon, in the experiment with 786-0 renal, with SK-MEL-2 melanoma, with OVCAR-8 ovarian and in the experiment with MOLT-4 leukemia was more than 100 µM in each case. The compound also showed a TGI in the experiment with SF-268 CNS of more than 100 µM.
As to `O=[N+]([O-])C(=C(Nc1ccccc1)Nc1ccccc1)/C(Cl)=C(\Cl)[N+](=O)[O-]`, the TGI in the experiment with EKVX NSCLC came to 19.5 µM; with SNB-19 CNS it was 26.8 µM; in the experiment with UACC-257 melanoma, 19.7 µM; with COLO 205 colon, 7.08 µM; with NCI-H23 lung, 11.2 µM; in the experiment on HT29 colon, 8.73 µM. Moreover, the TGI in the experiment on SK-MEL-5 melanoma came out at 5.05 µM; in the experiment on RPMI-8226 leukemia, 19.2 µM; in the experiment on RXF 393 renal it was 6.13 µM; in the experiment with MDA-MB-435, 10.5 µM; in the experiment with SW-620 colon it was 5.6 µM; in the experiment with SF-295 CNS it was 26.1 µM. For the same compound, the TGI in the experiment on MCF7 breast amounted to 20.3 µM; in the experiment with HCT-15 colon, 12.3 µM; with 786-0 renal, 15 µM; in the experiment with SK-MEL-2 melanoma it was 31.8 µM; with OVCAR-8 ovarian, 2.77 µM; with MOLT-4 leukemia it was 17.7 µM. Further, the TGI with SF-268 CNS amounted to 14.6 µM.
Regarding `Cc1ccc(Cc2n[nH]c(=O)n2Nc2ccccc2)cc1`, the TGI with EKVX NSCLC, with SNB-19 CNS, in the experiment with NCI-H522 lung, in the experiment on UACC-257 melanoma, in the experiment with COLO 205 colon and in the experiment with NCI-H23 lung was more than 100 µM in each case. Besides, the TGI with HT29 colon, with SK-MEL-5 melanoma, in the experiment on RPMI-8226 leukemia, with MDA-MB-435, in the experiment on SW-620 colon and in the experiment with SF-295 CNS was more than 100 µM each time. Moreover, the TGI with MCF7 breast, with HCT-15 colon, with 786-0 renal, in the experiment with SK-MEL-2 melanoma, in the experiment with OVCAR-8 ovarian and with MOLT-4 leukemia was more than 100 µM each time. The TGI with SF-268 CNS was more than 100 µM.
On to `COC(=O)C(Cc1ccccc1)NP(=O)(O)OCC1OC(n2cc(Br)c(=O)[nH]c2=O)CC1O` (configuration not stated), for which the TGI in the experiment on EKVX NSCLC, in the experiment on SNB-19 CNS, in the experiment with NCI-H522 lung, with UACC-257 melanoma, with COLO 205 colon and in the experiment with NCI-H23 lung was more than 100 µM in each case. For the same compound, the TGI with HT29 colon, with SK-MEL-5 melanoma, with RXF 393 renal, in the experiment with MDA-MB-435, with SW-620 colon and in the experiment with SF-295 CNS was more than 100 µM each time. For the same compound, the TGI in the experiment on MCF7 breast, in the experiment on HCT-15 colon, in the experiment on 786-0 renal, in the experiment with SK-MEL-2 melanoma, with OVCAR-8 ovarian and in the experiment on MOLT-4 leukemia was more than 100 µM throughout. Moreover, in the experiment on SF-268 CNS, the TGI is more than 100 µM.
For the compound `Cc1cc(-c2cccc3ccccc23)c(C#N)c(=S)n1C1OC(CO)C(O)C(O)C1O` (configuration not stated), the TGI with EKVX NSCLC, with UACC-257 melanoma, in the experiment on COLO 205 colon, in the experiment with NCI-H23 lung, with HT29 colon and in the experiment with SK-MEL-5 melanoma was more than 100 µM throughout. Besides, the TGI with RXF 393 renal, in the experiment with MDA-MB-435, in the experiment with SW-620 colon, in the experiment with SF-295 CNS, with MCF7 breast and with HCT-15 colon was more than 100 µM throughout. Besides, the TGI in the experiment with 786-0 renal, in the experiment on SK-MEL-2 melanoma, with OVCAR-8 ovarian and with MOLT-4 leukemia was more than 100 µM in each case.
As for `COc1ccc(/C=C2\CCC(CNc3ccc(S(N)(=O)=O)cc3)C2=O)cc1` (configuration not stated), the TGI in the experiment on EKVX NSCLC was more than 69.2 µM; with SNB-19 CNS, more than 65.9 µM; in the experiment on NCI-H522 lung, 10.6 µM; in the experiment on UACC-257 melanoma, 40.2 µM; with COLO 205 colon, 34.4 µM; with NCI-H23 lung it was 39.6 µM. Further, the TGI is 25.9 µM in the experiment with HT29 colon; 31.8 µM with SK-MEL-5 melanoma; 35.3 µM in the experiment on RXF 393 renal; 41.3 µM in the experiment with MDA-MB-435; 19.3 µM in the experiment on SW-620 colon; more than 100 µM with SF-295 CNS. Moreover, the TGI with MCF7 breast was 14.7 µM; with HCT-15 colon it was 18.2 µM; in the experiment on 786-0 renal it was 11.2 µM; in the experiment on SK-MEL-2 melanoma, more than 100 µM; in the experiment with OVCAR-8 ovarian it was 35.4 µM; in the experiment with MOLT-4 leukemia it was more than 44.2 µM. Also, the TGI in the experiment with SF-268 CNS was 54.4 µM.
For the compound `C=CCOc1cc(NC(=S)c2ccoc2C)ccc1OC`, the TGI with EKVX NSCLC, with SNB-19 CNS, with NCI-H522 lung, in the experiment with UACC-257 melanoma, with COLO 205 colon and with NCI-H23 lung was more than 100 µM throughout. Besides, the TGI with HT29 colon, in the experiment on SK-MEL-5 melanoma, in the experiment with RPMI-8226 leukemia, with MDA-MB-435, in the experiment on SW-620 colon and in the experiment on SF-295 CNS was more than 100 µM each time. Moreover, the TGI in the experiment on MCF7 breast, in the experiment on HCT-15 colon, with 786-0 renal, with SK-MEL-2 melanoma, in the experiment on OVCAR-8 ovarian and in the experiment with MOLT-4 leukemia was more than 100 µM each time. The TGI in the experiment with SF-268 CNS was more than 100 µM.
